Laboratory results as given in patent US12059393B2, “Compositions for topical treatment of radiation dermatitis” (Akos Biosciences, Inc, priority 2022, dated 2024).

Tested on: acute radiation-induced dermatitis
Assay: Blinded clinical dermatitis scoring in mouse radiation dermatitis model
Type: in vivo, Balb/c mice
Settings: for Dermatitis score % Change Group 4 vs. Group 3: 30 mg/mL CBD vs olive oil only; for Dermatitis score % Change Group 4 vs. Group 2: 30 mg/mL CBD vs radiation only
Method: A study was performed on mice to determine the efficacy of topically-dosed CBD in an olive oil vehicle for the treatment of acute radiation-induced dermatitis. Three different CBD dosages were used— 30 mg/mL (3 wt %), 120 mg/mL (12 wt %), and 250 mg/mL (25 wt %).
144 female Balb/c mice with an average starting body weight (±SEM) of 17.96±0.12 grams were randomized into six (6) groups of 24 animals each, as follows:
The control group (Group 1) was not irradiated. The animals in Groups 2-6 were anesthetized via a single intraperitoneal injection of xylazine and ketamine prior to being administered a single dose of 30 Grays (Gy) of radiation directed at a 2 cm×4 cm patch of shaved dorsal skin on Day 0. Radiation was generated by a 160 kVp (15-ma) X-ray source at a focal distance of 10 cm, hardened with a 0.35 mm Cu filtration system at a rate of approximately 3.2 Gy/minute.
Dosing for animals in Groups 3-6 began on Day 0 immediately after radiation. Treatments were administered topically (0.1 mL per animal) daily from Days 0-28.
Starting on Day 8 and continuing every other day thereafter (Days 8-28), each animal was evaluated for skin redness and dermatitis, and photographed for subsequent blinded scoring of dermatitis at the completion of the study. Body weight was taken daily.
Dermatitis was measured by blinded scoring of photographs at the end of the study. Two independent observers graded the photographs, and results were reported on a scale of 0 to 5 in 1.0 unit increments. The scale is described in the table below:
Data were evaluated using one-way ANOVA with Dunnett's multiple comparisons test to compare all groups to the vehicle control group using GraphPad Prism 8.4.3 (La Jolla, CA Duration of dermatitis data was evaluated using the Chi-square test to compare all groups to the vehicle-control group and radiation only group using SigmaPlot 11.0 (Systat Software, Inc.). Statistical significance was achieved when p<0.05.
The following table provides information on the duration of moderate dermatitis, which is defined as the number of days on which scores were at least 2
Bold values indicate a decrease (improvement), and underlined values indicate an increase (worsening).

[1] = 30 mg/mL CBD, 148 total animal days

SMILES: C=C(C)[C@@H]1CCC(C)=C[C@H]1c1c(O)cc(CCCCC)cc1O [CBD, 2-[(1R,6R)-6-Isopropenyl-3-methylcyclohex-2-en-1-yl]-5-pentylbenzene-1,3-diol]
- % Days ≥2 (30 mg/mL CBD): 50.68%
- Mean dermatitis scores compared against Group 2 (radiation only) and Group 3 (olive oil only) (30 mg/mL CBD (Group 4)): consistently decreased mean dermatitis scores
- Percentage of days with moderate dermatitis compared to the Olive oil only group (Group 3) (30 mg/mL CBD (Group 4)): significantly lower
- Percentages of animals with moderate or severe dermatitis (30 mg/mL CBD (Group 4), majority of surveyed days, vs olive oil only group): reduced percentages of animals with moderate or severe dermatitis
- Dermatitis score % Change Group 4 vs. Group 3 (Day 8): −22.22%
- Dermatitis score % Change Group 4 vs. Group 3 (Day 10): −18.75%
- Dermatitis score % Change Group 4 vs. Group 3 (Day 12): −21.62%
- Dermatitis score % Change Group 4 vs. Group 3 (Day 14): −20.00%
- Dermatitis score % Change Group 4 vs. Group 3 (Day 16): −23.33%
- Dermatitis score % Change Group 4 vs. Group 3 (Day 18): −34.62%
- Dermatitis score % Change Group 4 vs. Group 3 (Day 20): −38.10%
- Dermatitis score % Change Group 4 vs. Group 3 (Day 22): −17.65%
- Dermatitis score % Change Group 4 vs. Group 3 (Day 24): −23.53%
- Dermatitis score % Change Group 4 vs. Group 3 (Day 26): −29.41%
- Dermatitis score % Change Group 4 vs. Group 3 (Day 28): −31.25%
- Dermatitis score % Change Group 4 vs. Group 2 (Day 8): 101.92%
- Dermatitis score % Change Group 4 vs. Group 2 (Day 10): 10.80%
- Dermatitis score % Change Group 4 vs. Group 2 (Day 12): −15.04%
- Dermatitis score % Change Group 4 vs. Group 2 (Day 14): −8.78%
- Dermatitis score % Change Group 4 vs. Group 2 (Day 16): −29.72%
- Dermatitis score % Change Group 4 vs. Group 2 (Day 18): −35.07%
- Dermatitis score % Change Group 4 vs. Group 2 (Day 20): −43.25%
- Dermatitis score % Change Group 4 vs. Group 2 (Day 22): −32.46%
- Dermatitis score % Change Group 4 vs. Group 2 (Day 24): −40.42%
- Dermatitis score % Change Group 4 vs. Group 2 (Day 26): −42.11%
- Dermatitis score % Change Group 4 vs. Group 2 (Day 28): −46.93%
- Percentage of Animals with Moderate Dermatitis (≥2) (30 mg/mL CBD, Day 8): 18.8%
- Percentage of Animals with Moderate Dermatitis (≥3) (30 mg/mL CBD, Day 8): 0%
- Percentage of Animals with Moderate Dermatitis (≥2) (30 mg/mL CBD, Day 10): 75%
- Percentage of Animals with Moderate Dermatitis (≥3) (30 mg/mL CBD, Day 10): 6.3%
- Percentage of Animals with Moderate Dermatitis (≥2) (30 mg/mL CBD, Day 12): 81.3%
- Percentage of Animals with Moderate Dermatitis (≥3) (30 mg/mL CBD, Day 12): 18.8%
- Percentage of Animals with Moderate Dermatitis (≥2) (30 mg/mL CBD, Day 14): 75%
- Percentage of Animals with Moderate Dermatitis (≥3) (30 mg/mL CBD, Day 14): 56.3%
- Percentage of Animals with Moderate Dermatitis (≥2) (30 mg/mL CBD, Day 16): 75%
- Percentage of Animals with Moderate Dermatitis (≥3) (30 mg/mL CBD, Day 16): 41.7%
- Percentage of Animals with Moderate Dermatitis (≥2) (30 mg/mL CBD, Day 18): 66.7%
- Percentage of Animals with Moderate Dermatitis (≥3) (30 mg/mL CBD, Day 18): 0%
- Percentage of Animals with Moderate Dermatitis (≥2) (30 mg/mL CBD, Day 20): 33.3%
- Percentage of Animals with Moderate Dermatitis (≥3) (30 mg/mL CBD, Day 20): 0%
- Percentage of Animals with Moderate Dermatitis (≥2) (30 mg/mL CBD, Day 22): 47.7%
- Percentage of Animals with Moderate Dermatitis (≥3) (30 mg/mL CBD, Day 22): 0%
- Percentage of Animals with Moderate Dermatitis (≥2) (30 mg/mL CBD, Day 24): 33.3%
- Percentage of Animals with Moderate Dermatitis (≥3) (30 mg/mL CBD, Day 24): 0%
- Percentage of Animals with Moderate Dermatitis (≥2) (30 mg/mL CBD, Day 26): 25%
- Percentage of Animals with Moderate Dermatitis (≥3) (30 mg/mL CBD, Day 26): 0%
- Percentage of Animals with Moderate Dermatitis (≥2) (30 mg/mL CBD, Day 28): 16.7%
- Percentage of Animals with Moderate Dermatitis (≥3) (30 mg/mL CBD, Day 28): 0%
- Days <2 (animal days) [1]: 73
- Days ≥2 (duration of moderate dermatitis, animal days) [1]: 75
- % Days ≥2 (120 mg/mL CBD): 59.46%
- Percentage of Animals with Moderate Dermatitis (≥2) (120 mg/mL CBD, Day 8): 18.8%
- Percentage of Animals with Moderate Dermatitis (≥3) (120 mg/mL CBD, Day 8): 0%
- Percentage of Animals with Moderate Dermatitis (≥2) (120 mg/mL CBD, Day 10): 87.5%
- Percentage of Animals with Moderate Dermatitis (≥3) (120 mg/mL CBD, Day 10): 6.3%
- Percentage of Animals with Moderate Dermatitis (≥2) (120 mg/mL CBD, Day 12): 93.8%
